pIC50: −log10 of the molar value. Active and inactive are the calls of the source. How the calls were made is not given here.
Experiments:
[1] = inhibitors of PAF-induced NFkB signaling in CF airway cells, dose response, cell-based, uHTS hits, panel, cytotoxicity readout (AID 624344); conditions: CF bronchial epithelial cells, PAF-induced NFkB reporter inhibition; with PAF, mean of runs
[2] = tested on: Cytotoxicity; test: as above; conditions: CF bronchial epithelial cells, mean of runs

SMILES	pIC50 [1]	pIC50 [2]	IC50 [2]	IC50 [1]
CCOc1ccc(-n2cc(-c3ccccc3)c3c(N4CCOCC4)ncnc32)cc1	5.40	5.14		
CN(C)c1ccc(-c2nn3c(-c4ccccc4Cl)nnc3s2)cc1	4.72		> 79 µM (inactive)	
O=C(Nc1nc2ccc(F)cc2s1)C1CCN(S(=O)(=O)c2cc([N+](=O)[O-])ccc2Cl)CC1	5.19	4.97		
O=C1C(=Cc2ccccc2[N+](=O)[O-])Cc2ccccc21	5.20	5.06		
O=C1N(c2ccccc2C(F)(F)F)O[C@]1(c1ccccc1)C1CCCCC1	4.97		> 79 µM (inactive)	
c1csc(Cc2nn3c(-c4ccncc4)nnc3s2)c1	5.10		57 µM (inactive)	
Cc1nc(N2CCC(C(N)=O)CC2)c2c(-c3cccs3)csc2n1	5.49	4.47		
NC(=O)c1sc2nccc(Nc3ccccc3)c2c1N	6.43	4.40		
Cc1cc(C)c(C#N)c(SCC(=O)c2ccc(Cl)cc2Cl)n1	5.22	4.83		
Cc1ccc2occ(/C=N/NC(=O)c3ccccc3Br)c(=O)c2c1	5.30	4.39		
C=CCSc1nsc(NC(=O)Nc2cccc(C(C)=O)c2)n1	5.84	5.22		
CC(=O)Oc1c(Cl)cc(N(C(C)=O)S(=O)(=O)c2ccccc2)c2ccccc12	5.11	5.05		
O=C(Nc1cccc(S(=O)(=O)N2CCCCC2)c1)Nc1ccc(Cl)cc1Cl	5.05	4.97		
COc1ccc(C(=O)Nc2cccc(NC(=O)c3ccc(OC)c(OC)c3)n2)cc1OC	5.43	5.83		
C=C1C(=O)O[C@H]2C[C@H]1[C@@H](OC(C)=O)C/C(C)=C/CC/C(C)=C\CC[C@]2(C)O	5.70	5.62		
c1cncc(-c2ccc3ncnc(NCc4ccc5c(c4)OCO5)c3c2)c1	5.19	5.18		
CC(=O)c1ccc(-n2c(C)c(C(C)=O)c3cc(O)ccc32)cc1	5.87	4.35		
CN(c1ncnc(N)c1[N+](=O)[O-])C1CCCCC1	5.96		> 79 µM (inactive)	
O=Nc1c(O)n(Cc2c(Cl)cccc2Cl)c2ccccc12	5.26	4.31		
CC(=O)c1c(C)n(-c2ccccc2)c2ccc(O)cc12	5.25		> 79 µM (inactive)	
C=C1C(=O)C2=CC1CCC(=O)C1(C)CCC(OC(C)=O)C(C)(C)C1CC2O (configuration not stated)	5.87	4.88		

SMILES	pIC50 [1]	pIC50 [2]	IC50 [2]	IC50 [1]
Cc1ccc(C(=O)Nc2cccc(C(F)(F)F)c2)cc1NC(=O)c1nccnc1N	5.09	5.02		
CC1CCCCN1c1ncnc(N)c1[N+](=O)[O-] (configuration not stated)	5.44		> 79 µM (inactive)	
CC1CCc2c(sc3ncnc(N4CCOCC4)c23)C1 (configuration not stated)	5.39	4.69		
C[C@@H]1CN([C@H](C)CO)C(=O)c2cc(NC(=O)Nc3ccc(C(F)(F)F)cc3)ccc2O[C@H]1CN(C)S(=O)(=O)c1cccs1	5.27		54.9 µM (inactive)	
O=[N+]([O-])c1ccc(Oc2ccc(F)cc2)c2ccncc12	5.74	4.37		
O=C(c1cncc(Br)c1)N1CCc2ccccc2C1	5.06		> 79 µM (inactive)	
C=CCN1c2ccccc2[C@]23C[C@@H](C(=O)OC)N(C(=O)c4ccc(Br)cc4)C2=NC(C(=O)OC)=C(C(=O)OC)[C@H]13	5.03	4.91		
Cc1ccc(NC(=O)c2cc(C(=O)c3cc(Cl)ccc3O)cn(-c3ccc(C)cc3)c2=O)cc1	5.03		53 µM (inactive)	
CC(C)C[C@H](CO)Nc1nc(Nc2cccc(Cl)c2)c2ncn(C(C)C)c2n1	5.29	4.44		
Cc1ccsc1CN(C)c1ncnc2ccc(-c3ccoc3)cc12	6.42	4.33		
COc1ccc(-c2cc(=O)oc3c(C)c(O)ccc23)cc1	6.06		67.5 µM (inactive)	
COC(=O)c1ccc2c(c1)C(C)(C)C(/C=C/c1ccccc1O)=[N+]2C	5.23	4.45		
Cc1cccc(NS(=O)(=O)c2ccc(-c3cnc(C4CC4)o3)cc2)c1C	5.20		56.2 µM (inactive)	
CNc1ccc2ncc(-c3ccc(OC)c(OC)c3)n2n1	6.27	4.80		
CC(=O)OCCN1c2ccccc2Sc2cnccc21	5.36		63.5 µM (inactive)	
CS(=O)(=O)c1ncc(Cl)c(C(=O)Nc2ccc(OC(F)F)cc2)n1	5.75	5.45		
Nc1nc(N)nc(-c2ccc(Cl)c(Cl)c2)n1	5.56	4.69		
Fc1cccc(Cl)c1/C=N/Nc1c(Cl)cncc1Cl	5.23	4.58		
CCOC(=O)/C=c1/s/c(=C\c2c(OC)ccc3ccccc23)c(=O)n1CC(=O)NCC1CCCO1 (configuration not stated)			> 79 µM (inactive)	> 79 µM (inactive)
Brc1ccc2ncnc(NCc3cccnc3)c2c1	5.65		66.2 µM (inactive)	
